From patent US20240018132A1, “5-HYDROXY-1,4-NAPHTHALENEDIONE FOR USE IN THE TREATMENT OF CANCER” (GODAVARI BIOREFINERIES LIMITED, priority 2020, published 2024)

Assays:
MDAMB231 [1] = assay: Soft agar colony-formation assay, breast cancer; format: cell-based; settings: for anticancer activity in comparison with cisplatin, soft agar, breast cancer cell line: FIG. 51, MDAMB231; for IC50: Homo sapiens, MDA-MB-231, 168 h, Soft Agar Assay, 1 week, Alamar Blue
Description: (§1) The Soft Agar Colony-formation Assay is an anchorage-independent growth assay in soft agar, which is one of the most stringent assays for detecting malignant transformation of cells. For this assay, malignant cells are cultured with appropriate controls in soft agar medium for 1-2 weeks. Following this incubation period, formed colonies can either be analyzed morphologically using cell stain and quantifying the number of colonies formed.
(§2) Briefly, for Soft Agar Assay a mixture of 50 ul of 2× medium (taken appropriately as per cell line) and 50 ul of 1.2% Bacto Agar were plated on to each well of 96 well micro titer assay plate. 10 ul of cells (of specific plating efficiency pre standardized for respective cell line) were mixed with 20 ul of 2× medium and 30 ul of 0.8% of Bacto Agar and 1.6 ul of drug (of appropriate concentration) in a vial and transferred to the solidified pre layers of the assay plates. The cells were then allowed to grow and form colonies at 37° C. and 5% CO2 for 1 week. An intermittent feeding with 50 ul of appropriate 2× medium was performed after 3 days of experimental set up. 16 ul of Alamar Blue (1.5 mg/ml) was then added to all the wells to quantify the developed colonies. The plates were incubated for 24 hrs at 37° C. Absorbance was then measured at 630 nm. XY graph of log Percent viability was then plotted against log drug concentration.
(§3) Following plating efficiencies were standardized for Soft Agar Assay: […]

PC3 [2] = assay: In vitro sphere-forming assay (cancer stem cells), Prostosphere media; settings: for viability at 0.0025 µM / viability at 0.025 µM / viability at 0.25 µM / viability at 2.5 µM / viability at 25 µM: Homo sapiens, PC-3, read-out: % Viability of spheres (PC3); for 3D sphere count of PC3: Prostosphere media, 2000 cells/well, n = 6 ± S.D
Human lymphocytes = assay: Lymphocyte assay (MTT on normal cells); format: cell-based; settings: human peripheral blood lymphocytes, MTT procedure; for IC50: Lymphocyte
Description: Human lymphocytes were isolated from the peripheral blood. A pure population of lymphocytes was obtained based on differential centrifugation, in which diluted defibrinated blood was layered on a solution of sodium diatrizoate and polysucrose (HiSep LSM 1077) and centrifuged at low speeds for 30 mins.
Procedure: The separation of lymphocytes from fresh defibrinated blood was performed by the procedure described below: • 1. Diluted defibrinated fresh blood was overlaid gradually on (HiSeP LSM1077) and centrifuged at low speed for 30 mins. • 2. The lymphocyte layer (the buffy coat) was carefully removed in a new collection tube. • 3. The buffy coat was given another wash, by the diluent buffer Dulbecco's phosphate buffered saline (D.P.B.S) • 4. The supernatant was discarded and the pellet was resuspended in D.P.B.S. • 5. The viability of cells was checked by Haemocytometer. • 6. Cells with purity and viability of more than 95% were taken for the experiment. • 7. Purified lymphocytes were diluted at a concentration of 0.7 million/ml with sterile D.P.B.S and MTT procedure was performed exactly as described earlier.

PC3 [3] = assay: In vitro antiproliferative assay (MTT assay), prostate cancer cell line; format: cell-based; settings: Homo sapiens, PC-3, 48 h, MTT assay, prostate cancer PC3, 48 hrs drug incubation
Outline: (§4)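 Cells plated, grown 24 h at 37 °C/5% CO2, then exposed to compounds (from 0.1 M DMSO stock) for 48 h. Viability read by MTT (0.5 mg/ml, 4 h) with DMSO solubilization; log % viability plotted against log concentration.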

MDAMB231 [4] = assay: In vitro sphere-forming assay (cancer stem cells), Mammosphere media; settings: for viability at 0.0025 µM / viability at 0.025 µM / viability at 0.25 µM / viability at 2.5 µM / viability at 25 µM: Homo sapiens, MDA-MB-231, read-out: % Viability of spheres (MDAMB231); for 3D sphere count of MDAMB231: Mammosphere media, 2000 cells/well, n = 6 ± S.D
Procedure: In Vitro Sphere-forming Assay: Sphere assay measures the ability of cancer stem cells (CSCs) to form spheres in specially designed serum-free medium.
Mammosphere Media Preparation (For 100 mL): 1 g methyl cellulose autoclaved with magnetic stirrer, 100 ml plain media (MEBM) was added and dissolved under magnetic stirring. After complete dissolution FGF-80 μL, EGF-40 μL, Penstrep-1 mL, Heparin-400 μL was added.
Procedure—The cells were trypsinised and made into single-cell suspension by passing through cell strainers (100 μl and 40 μl, respectively), The cells were diluted at a concentration of 2000 cells/100 μL and suspended in either Mammosphere (for breast cell lines) or Prostosphere (for prostate cell lines). 100 μL of this suspension was added into each well of 96-well suspension plates and incubated at 37° C., 5% CO2 for 24 hrs. Appropriate concentrations of the drugs (2 μL) were added into respective wells with 100 μL of stem cell culture medium. Plates were incubated at 37° C., 50 CO2 for 72 hrs. After incubation, 2.5 μL of the respective drug concentration and 50 μL of stem cell culture medium were added into each well and the plates were further incubated at 37° C., 50% CO2 for 72 hrs. 3 μL of the respective drug concentration was added with 50 μL of stem cell culture medium again after incubation and plates were reincubated for 72 hrs at 37° C., 50 CO2. Number of primary spheres formed for each concentration were counted. The spheres were converted to 0 viability of spheres compared to untreated (Growth Control with DMSO, GCD).

MDAMB231 [5] = assay: In vitro antiproliferative assay (MTT assay), breast cancer cell line; format: cell-based; settings: Homo sapiens, MDA-MB-231, 48 h, MTT assay, breast cancer MDAMB231, 48 hrs drug incubation
Outline: as §4

PC3 [6] = assay: Soft agar colony-formation assay, prostate cancer; format: cell-based; settings: for anticancer activity in comparison with cisplatin, soft agar, prostate cancer cell line: FIG. 52, PC3; for IC50: Homo sapiens, PC-3, 168 h, Soft Agar Assay, 1 week, Alamar Blue
Description: as §1, §2, §3

Compound	anticancer activity in comparison with cisplatin, soft agar, breast cancer cell line (MDAMB231 [1])	IC50 (MDAMB231 [1])	viability at 0.0025 µM (PC3 [2])	viability at 0.025 µM (PC3 [2])	viability at 0.25 µM (PC3 [2])	viability at 2.5 µM (PC3 [2])	viability at 25 µM (PC3 [2])	3D sphere count of PC3 (PC3 [2]; drug 0.0025 uM)	3D sphere count of PC3 (PC3 [2]; drug 0.025 uM)	3D sphere count of PC3 (PC3 [2]; drug 0.25 uM)	3D sphere count of PC3 (PC3 [2]; drug 2.5 uM)	3D sphere count of PC3 (PC3 [2]; drug 25 uM)	IC50 (PC3 [3])	viability at 0.0025 µM (MDAMB231 [4])	viability at 0.025 µM (MDAMB231 [4])	viability at 0.25 µM (MDAMB231 [4])	viability at 2.5 µM (MDAMB231 [4])	viability at 25 µM (MDAMB231 [4])	3D sphere count of MDAMB231 (MDAMB231 [4]; drug 0.0025 uM)	3D sphere count of MDAMB231 (MDAMB231 [4]; drug 0.025 uM)	other results
O=C1C=C(N2CCOCC2)C(=O)c2c(OCCN3CCOCC3)cccc21 [Formula 73]	higher anticancer activity in comparison with cisplatin	3.77 µM	86%	68%	50%	36%	23%	69(±2)	55(±3)	40(±3)	29(±3)	19(±3)	3.05 µM	87%	70%	50%	35%	19%	62(±4)	50(±3)	Activity on Lymphocytes (IC50) (Human lymphocytes): No activity; 3D sphere count of MDAMB231 (MDAMB231 [4]; drug 0.25 uM): 36(±4); 3D sphere count of MDAMB231 (MDAMB231 [4]; drug 2.5 uM): 25(±3); 3D sphere count of MDAMB231 (MDAMB231 [4]; drug 25 uM): 14(±3); IC50 (MDAMB231 [5]): 2.18 µM; anticancer activity in comparison with cisplatin, soft agar, prostate cancer cell line (PC3 [6]): higher anticancer activity in comparison with cisplatin; IC50 (PC3 [6]): 2.68 µM
COc1ccc(NC2=CC(=O)c3c(OCCCCN4CCOCC4)cccc3C2=O)cc1OC [Formula 41]	higher anticancer activity in comparison with cisplatin	1.63 µM	85%	72%	54%	46%	27%	74(±4)	63(±3)	47(±5)	40(±4)	24(±4)	2.73 µM	86%	70%	52%	34%	19%	66(±4)	54(±4)	Activity on Lymphocytes (IC50) (Human lymphocytes): No activity; 3D sphere count of MDAMB231 (MDAMB231 [4]; drug 0.25 uM): 40(±3); 3D sphere count of MDAMB231 (MDAMB231 [4]; drug 2.5 uM): 26(±3); 3D sphere count of MDAMB231 (MDAMB231 [4]; drug 25 uM): 15(±3); IC50 (MDAMB231 [5]): 3.06 µM; anticancer activity in comparison with cisplatin, soft agar, prostate cancer cell line (PC3 [6]): higher anticancer activity in comparison with cisplatin; IC50 (PC3 [6]): 2.67 µM
O=C1C=C(OCCCCCCN2CCOCC2)C(=O)c2ccccc21 [Formula 68]	higher anticancer activity in comparison with cisplatin	2.37 µM	62%	55%	41%	31%	24%	54(±4)	48(±3)	36(±3)	27(±2)	21(±2)	4.73 µM	62%	53%	47%	39%	32%	54(±2)	47(±2)	IC50 (Human lymphocytes): 5.58 µM; 3D sphere count of MDAMB231 (MDAMB231 [4]; drug 0.25 uM): 39(±3); 3D sphere count of MDAMB231 (MDAMB231 [4]; drug 2.5 uM): 33(±2); 3D sphere count of MDAMB231 (MDAMB231 [4]; drug 25 uM): 27(±2); IC50 (MDAMB231 [5]): 3.18 µM; anticancer activity in comparison with cisplatin, soft agar, prostate cancer cell line (PC3 [6]): higher anticancer activity in comparison with cisplatin; IC50 (PC3 [6]): 2.53 µM
O=C1C=C(OCCCCN2CCOCC2)C(=O)c2ccccc21 [Formula 67]	higher anticancer activity in comparison with cisplatin	3.17 µM	70%	64%	51%	44%	36%	61(±5)	56(±3)	45(±3)	39(±2)	32(±3)	4.11 µM	80%	69%	56%	48%	37%	67(±2)	58(±3)	IC50 (Human lymphocytes): 5.15 µM; 3D sphere count of MDAMB231 (MDAMB231 [4]; drug 0.25 uM): 47(±5); 3D sphere count of MDAMB231 (MDAMB231 [4]; drug 2.5 uM): 40(±5); 3D sphere count of MDAMB231 (MDAMB231 [4]; drug 25 uM): 31(±2); IC50 (MDAMB231 [5]): 3.09 µM; anticancer activity in comparison with cisplatin, soft agar, prostate cancer cell line (PC3 [6]): higher anticancer activity in comparison with cisplatin; IC50 (PC3 [6]): 2.21 µM
